Test results as given in patent US12049450B2, “Pyridyloxy-carboxylate derivative and preparation method therefor, herbicidal composition, and use” (Qingdao Kingagroot Chemical Compound Co., Ltd., priority 2018, dated 2024).

How the values were obtained:
Assay type in all cases: in vivo
[1] = system: Abutilon theophrasti; assay: Post-emergence test experiment (greenhouse pot, spray at 2-3 leaf stage); settings: 1000 g/ha; post-emergence spray at 2-3 leaf stage; assessed after 3 weeks; fresh weight inhibition rate
Summary of the method: (§1)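 Activity graded levels 0-5 by fresh-weight inhibition (level 5 above 85%, level 0 below 5%), assessed 3 weeks after treatment. Plants grown in greenhouse pots were sprayed post-emergence at 2-3 leaves using acetone/tween-80 solutions with methyl oleate synergist (1.5 L/ha).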

[2] = system: Cyperus iria; assay: as above; settings: post-emergence, 600 g/ha, after 3 weeks; from Hunan, resistant to ALS inhibitor herbicides
Summary of the method: as §1

[3] = system: Digitaria sanguinalis; assay: as above; settings: 1000 g/ha; post-emergence spray at 2-3 leaf stage; assessed after 3 weeks; fresh weight inhibition rate
Summary of the method: as §1

[4] = system: Echinochloa crusgalli; assay: as above; settings: for Activity level (growth inhibition rate) Echinochloa crusgalli: 1000 g/ha, post-emergence spray at 2-3 leaf stage, assessed after 3 weeks, fresh weight inhibition rate; for Echinochloa crusgalli, activity level (growth inhibition rate): post-emergence, 600 g/ha, after 3 weeks, from Hunan, resistant to ALS inhibitor herbicides
Summary of the method: as §1

[5] = system: Galium spurium; assay: as above; settings: 1000 g/ha; post-emergence spray at 2-3 leaf stage; assessed after 3 weeks; fresh weight inhibition rate
Summary of the method: as §1

[6] = system: Indica rice; assay: as above; settings: post-emergence, 600 g/ha, after 3 weeks
Summary of the method: as §1

[7] = system: Japonica rice; assay: as above; settings: post-emergence, 600 g/ha, after 3 weeks
Summary of the method: as §1

[8] = system: Monochoria vaginalis; assay: as above; settings: 1000 g/ha; post-emergence spray at 2-3 leaf stage; assessed after 3 weeks; fresh weight inhibition rate
Summary of the method: as §1

[9] = system: rice (japonica rice); assay: Transplanted rice safety evaluation in rice field soil pot; settings: 1000 g/ha, 21 days after treatment
From the text: (§2) The activity level standard of harmful plants destruction (i. e. growth inhibition rate) is as follows: • Level 5: the growth inhibition rate is greater than 85%; • Level 4: the growth inhibition rate is equal to or greater than 60% and less than 85%; • Level 3: the growth inhibition rate is equal to or greater than 40% and less than 60%; • Level 2: the growth inhibition rate is equal to or greater than 20% and less than 40%; • Level 1: the growth inhibition rate is equal to or greater than 5% and less than 20%; • Level 0: the growth inhibition rate is less than 5%;
(§3) Transplanted rice safety evaluation and weed control effect evaluation in rice field:
In addition, the rice field soil that loaded into the 1/1,000,000 ha pot was leveled to keep water storage at 3-4 cm depth. The 3-leaf stage rice (japonica rice) was transplanted at 3 cm of transplanting depth the next day. The compound of the present invention was treated by the same way after 5 days of transplantation.
(§4) The fertility condition of Monochoria vaginalis 14 days and rice 21 days after the treatment of the compound of the invention with the naked eye.

[10] = system: Monochoria vaginalis; assay: Weed control effect evaluation in rice field soil pot; settings: paddy pot, 1000 g/ha, 14 days after treatment; resistant to pyrazosulfuron-ethyl and penoxsulam
From the text: as §2, §3
Rice field soil was loaded into a 1/1,000,000 ha pot. The seeds of Monochoria vaginalis were sowed and gently covered with soil, then left to stand still in greenhouse in the state of 0.5-1 cm of water storage. It was kept at 3-4 cm of water storage thereafter. The weeds were treated by dripping the WP or SC water diluents prepared according to the common preparation method of the compounds of the present invention with pipette homogeneously to achieve specified effective amount when Monochoria vaginalis reached 0.5 leaf stage.
as §4

[11] = system: Soybean; assay: Spray drift test, application by unmanned gyroplane, soybean field at 10 meters; settings: 600 g/ha, gyroplane at 1 m, gentle breeze
Description: Broadleaf crops are very sensitive to hormonal herbicides, therefore crop injuries are more likely to occur in case of spray drifting. Tests were conducted in gentle breeze for the compounds of the present invention. The formulation of the compounds of the present invention was applied by DJI unmanned gyroplane with application height of 1 m and water volume of 20 kg/ha. The use rate was 600 g/ha. The active ingredient was dissolved by acetone and diluted to aqueous solution of Tween 80. There's a soybean field at 10 meters from the application area and the height of soybean plants were about 15 cm at the application time.

SMILES	Activity level (growth inhibition rate) Abutilon theophrasti [1]	Cyperus iria, activity level (growth inhibition rate) [2]	Activity level (growth inhibition rate) Digitaria sanguinalis [3]	Activity level (growth inhibition rate) Echinochloa crusgalli [4]	Echinochloa crusgalli, activity level (growth inhibition rate) [4]	Activity level (growth inhibition rate) Galium spurium [5]	Indica rice, activity level (growth inhibition rate) [6]	Japonica rice, activity level (growth inhibition rate) [7]	Activity level (growth inhibition rate) Monochoria Vaginalis [8]	Rice, safety level [9]	Monochoria Vaginalis, activity level [10]	Soybean, injury level by spray drift [11]
CC(Oc1nc(F)c(Cl)c(N)c1Cl)C(=O)OCc1ccccc1 (stereo not shown) [Compound 4]	5 (Level 5: the growth inhibition rate is greater than 85%)	5 (Level 5: the growth inhibition rate is greater than 85%)	5 (Level 5: the growth inhibition rate is greater than 85%)	5 (Level 5: the growth inhibition rate is greater than 85%)	5 (Level 5: the growth inhibition rate is greater than 85%)	5 (Level 5: the growth inhibition rate is greater than 85%)	0 (Level 0: the growth inhibition rate is less than 5%)	0 (Level 0: the growth inhibition rate is less than 5%)	5 (Level 5: the growth inhibition rate is greater than 85%)	0 (Level 0: the growth inhibition rate is less than 5%)	5 (Level 5: the growth inhibition rate is greater than 85%)	0 (Level 0: the growth inhibition rate is less than 5%)
COc1c(Cl)ccc(COC(=O)C(C)Oc2nc(F)c(Cl)c(N)c2Cl)c1F (stereo not shown) [Compound 85]	5 (Level 5: the growth inhibition rate is greater than 85%)	5 (Level 5: the growth inhibition rate is greater than 85%)	5 (Level 5: the growth inhibition rate is greater than 85%)	5 (Level 5: the growth inhibition rate is greater than 85%)	5 (Level 5: the growth inhibition rate is greater than 85%)	5 (Level 5: the growth inhibition rate is greater than 85%)	0 (Level 0: the growth inhibition rate is less than 5%)	0 (Level 0: the growth inhibition rate is less than 5%)	5 (Level 5: the growth inhibition rate is greater than 85%)	0 (Level 0: the growth inhibition rate is less than 5%)	5 (Level 5: the growth inhibition rate is greater than 85%)	–
CC(Oc1nc(F)c(Cl)c(N)c1Cl)C(=O)OCc1ccccn1 (stereo not shown) [Compound 120]	5 (Level 5: the growth inhibition rate is greater than 85%)	5 (Level 5: the growth inhibition rate is greater than 85%)	5 (Level 5: the growth inhibition rate is greater than 85%)	5 (Level 5: the growth inhibition rate is greater than 85%)	5 (Level 5: the growth inhibition rate is greater than 85%)	5 (Level 5: the growth inhibition rate is greater than 85%)	0 (Level 0: the growth inhibition rate is less than 5%)	0 (Level 0: the growth inhibition rate is less than 5%)	5 (Level 5: the growth inhibition rate is greater than 85%)	0 (Level 0: the growth inhibition rate is less than 5%)	5 (Level 5: the growth inhibition rate is greater than 85%)	–
CC(Oc1nc(F)c(Cl)c(N)c1Cl)C(=O)SCc1cc(C2CC2)nn1C (stereo not shown) [Compound 128]	5 (Level 5: the growth inhibition rate is greater than 85%)	5 (Level 5: the growth inhibition rate is greater than 85%)	5 (Level 5: the growth inhibition rate is greater than 85%)	5 (Level 5: the growth inhibition rate is greater than 85%)	5 (Level 5: the growth inhibition rate is greater than 85%)	5 (Level 5: the growth inhibition rate is greater than 85%)	0 (Level 0: the growth inhibition rate is less than 5%)	0 (Level 0: the growth inhibition rate is less than 5%)	5 (Level 5: the growth inhibition rate is greater than 85%)	0 (Level 0: the growth inhibition rate is less than 5%)	5 (Level 5: the growth inhibition rate is greater than 85%)	–
CC(Oc1nc(F)c(Cl)c(N)c1Cl)C(=O)OCCc1ccoc1 (stereo not shown) [Compound 140]	5 (Level 5: the growth inhibition rate is greater than 85%)	5 (Level 5: the growth inhibition rate is greater than 85%)	5 (Level 5: the growth inhibition rate is greater than 85%)	5 (Level 5: the growth inhibition rate is greater than 85%)	5 (Level 5: the growth inhibition rate is greater than 85%)	5 (Level 5: the growth inhibition rate is greater than 85%)	0 (Level 0: the growth inhibition rate is less than 5%)	0 (Level 0: the growth inhibition rate is less than 5%)	5 (Level 5: the growth inhibition rate is greater than 85%)	0 (Level 0: the growth inhibition rate is less than 5%)	5 (Level 5: the growth inhibition rate is greater than 85%)	–
CC(Oc1nc(F)c(Cl)c(N)c1Cl)C(=O)SCc1ccc2ncccc2c1 (stereo not shown) [Compound 185]	5 (Level 5: the growth inhibition rate is greater than 85%)	5 (Level 5: the growth inhibition rate is greater than 85%)	5 (Level 5: the growth inhibition rate is greater than 85%)	5 (Level 5: the growth inhibition rate is greater than 85%)	5 (Level 5: the growth inhibition rate is greater than 85%)	5 (Level 5: the growth inhibition rate is greater than 85%)	0 (Level 0: the growth inhibition rate is less than 5%)	0 (Level 0: the growth inhibition rate is less than 5%)	5 (Level 5: the growth inhibition rate is greater than 85%)	0 (Level 0: the growth inhibition rate is less than 5%)	5 (Level 5: the growth inhibition rate is greater than 85%)	–
